Consider 19 molecules from patent US20250289789A1, “REVERSIBLE LYSINE COVALENT MODIFIERS OF CDK2 AND USES THEREOF” (Terremoto Biosciences, Inc., priority 2023, published 2025).

Holding throughout (format): cell-based
For experiment [1], the target named is T1, CDK1-NanoLuc fusion with CCNB1 in 293T or 293 cells (Homo sapiens, UniProt P06493).
T1 construct: host or cells: 293T (ATCC CRL-3216) or 293 (ATCC CRL-1573)
The experiment can be described thus: NanoBRET Target Engagement (TE) Intracellular Kinase Assay, CDK1/CCNB1. As to conditions: NanoBRET TE intracellular kinase assay, 2-hour incubation, read-out: NanoBRET-CDK1/B1 IC50. The method, boiled down:
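IC50 derived by four-parameter logistic fit of DMSO-normalized acceptor/donor (610/450 nm) BRET ratio. Compound and Tracer K-10 were applied together for 2 h at 37° C to 293 or 293T cells transfected 24 h earlier with CDK1-NanoLuc fusion and cyclin B1.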

Experiment [2] deals with T2, CDK2-NanoLuc fusion with CCNE1 in 293T or 293 cells (Homo sapiens, UniProt P24941).
T2 construct: host or cells: 293T (ATCC CRL-3216) or 293 (ATCC CRL-1573)
Description: NanoBRET Target Engagement (TE) Intracellular Kinase Assay, CDK2/CCNE1. As to conditions: NanoBRET TE intracellular kinase assay, 2-hour incubation, read-out: NanoBRET-CDK2/E1 IC50. In general terms: Bioluminescence resonance energy transfer reports proximity on the nanometre scale.

For experiment [3], the target named is T3, CDK4-NanoLuc fusion with CCND1 in 293T or 293 cells (Homo sapiens, UniProt P11802).
T3 construct: host or cells: 293T (ATCC CRL-3216) or 293 (ATCC CRL-1573)
Description: NanoBRET Target Engagement (TE) Intracellular Kinase Assay, CDK4/CCND1. As to conditions: NanoBRET TE intracellular kinase assay, 2-hour incubation, read-out: NanoBRET-CDK4/D1 IC50.

Experiment [4] has as its system Phospho-Rb Ser807/811 in OVCAR3 cells. Description: OVCAR3 Phospho-Rb Ser807/811 HTRF assay. As to conditions: Homo sapiens, OVCAR-3, 1 h, read-out: pRb-OVCAR3 IC50. The method, then: Cells were trypsinized and resuspended in 1 mM hydroxyurea (Sigma; H8627), 90% RPMI and 10% fetal bovine serum. […] Dose response curve normalized to DMSO control was plotted using four-parameter logistic model for IC50 calculation.
For orientation: In TR-FRET formats the signal depends on donor and acceptor labels being close together.

[5] abbreviates: OVCAR3 cells, Phospho-Rb Ser807/811 HTRF, 1 hour incubation.

Read-outs that look alike come from different tables or passages of the source.

T3 sequence (P11802 whole entry, the tested form may be a part): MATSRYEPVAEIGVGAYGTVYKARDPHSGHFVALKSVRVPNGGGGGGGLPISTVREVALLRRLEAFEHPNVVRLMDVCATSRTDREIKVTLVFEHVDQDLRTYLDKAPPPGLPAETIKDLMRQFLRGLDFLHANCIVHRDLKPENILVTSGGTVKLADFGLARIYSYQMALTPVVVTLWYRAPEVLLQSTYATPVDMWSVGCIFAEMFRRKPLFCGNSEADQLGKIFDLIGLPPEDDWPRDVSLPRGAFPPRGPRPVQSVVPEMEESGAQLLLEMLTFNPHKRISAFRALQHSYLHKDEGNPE
T3 sequence (P24385 whole entry partner, the tested form may be a part): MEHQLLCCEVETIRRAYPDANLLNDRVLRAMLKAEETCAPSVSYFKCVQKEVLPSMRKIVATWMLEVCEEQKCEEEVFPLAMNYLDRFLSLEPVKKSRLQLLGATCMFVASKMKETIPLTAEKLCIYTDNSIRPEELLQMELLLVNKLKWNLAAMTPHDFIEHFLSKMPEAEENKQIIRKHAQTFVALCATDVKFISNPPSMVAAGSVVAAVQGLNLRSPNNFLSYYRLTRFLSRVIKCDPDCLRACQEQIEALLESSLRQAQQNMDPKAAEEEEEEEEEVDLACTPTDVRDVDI
T1 sequence (P06493 whole entry, the tested form may be a part): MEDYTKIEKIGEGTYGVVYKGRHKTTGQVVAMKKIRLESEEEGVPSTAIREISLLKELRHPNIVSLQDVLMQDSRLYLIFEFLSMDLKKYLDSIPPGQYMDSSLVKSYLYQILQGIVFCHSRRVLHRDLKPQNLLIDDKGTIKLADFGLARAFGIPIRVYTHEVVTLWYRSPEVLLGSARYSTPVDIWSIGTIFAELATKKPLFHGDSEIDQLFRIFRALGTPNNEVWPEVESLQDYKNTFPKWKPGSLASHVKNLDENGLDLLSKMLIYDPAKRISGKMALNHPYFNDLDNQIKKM
T1 sequence (P14635 whole entry partner, the tested form may be a part): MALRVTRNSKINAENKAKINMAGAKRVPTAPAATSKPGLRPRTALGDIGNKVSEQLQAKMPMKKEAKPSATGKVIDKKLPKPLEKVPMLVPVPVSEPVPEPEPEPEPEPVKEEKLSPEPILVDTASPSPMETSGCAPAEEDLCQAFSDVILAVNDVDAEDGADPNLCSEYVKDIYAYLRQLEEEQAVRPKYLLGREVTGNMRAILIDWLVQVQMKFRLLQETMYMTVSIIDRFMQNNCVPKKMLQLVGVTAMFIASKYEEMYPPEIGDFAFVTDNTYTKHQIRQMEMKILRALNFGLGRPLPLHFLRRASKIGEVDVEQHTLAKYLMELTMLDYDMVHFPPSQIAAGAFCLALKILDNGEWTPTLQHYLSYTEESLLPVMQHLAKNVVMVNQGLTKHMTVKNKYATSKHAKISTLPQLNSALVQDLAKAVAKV

Consider `CC(C)NC(=O)O[C@@H]1CC[C@H](c2cc(NC(=O)c3cc(-c4cccc(O)c4C=O)nn3C3CC3)n[nH]2)C1` [Compound 61, (1R,3S)-3-(3-(1-cyclopropyl-3-(2-formyl-3-hydroxyphenyl)-1H-pyrazole-5-carboxamido)-1H-pyrazol-5-yl)cyclopentyl isopropylcarbamate], for which the IC50 in experiment [1] is 36.1 nM; in experiment [2], 6.27 nM; in experiment [3] it was 2890 nM; in experiment [4] (setting [5]) it was 477 nM.
Taken in the same sequence, the figures for `CC(C)NC(=O)O[C@@H]1CC[C@H](c2cc(NC(=O)C3Cc4ccc(O)c(C=O)c4O3)n[nH]2)C1` (stereo partly drawn) [Compound 62, (1R,3S)-3-(3-(7-formyl-6-hydroxy-2,3-dihydrobenzo-furan-2-carboxamido)-1H-pyrazol-5-yl)cyclopentyl isopropylcarbamate] were 270 nM, 34.4 nM, 7230 nM and 1870 nM.
Take `CC(C)NC(=O)O[C@@H]1CC[C@H](c2cc(NC(=O)OCc3cccc(O)c3C=O)n[nH]2)C1` [Compound 63, (2-formyl-3-hydroxyphenyl)methyl N-{5-[(1S,3R)-3-[(isopropylcarbamoyl)oxy]cyclopentyl]-1H-pyrazol-3-yl}carbamate]: the IC50 in experiment [1] was 361 nM; in experiment [2], 9.55 nM; in experiment [3] it was 6320 nM; in experiment [4] (setting [5]) it was 1260 nM.
`Cc1sc(-c2cccc(O)c2C=O)nc1C(=O)Nc1cc([C@H]2CC[C@@H](OC(=O)NC(C)C)C2)[nH]n1` [Compound 65, (1R,3S)-3-(3-(2-(2-formyl-3-hydroxyphenyl)-5-methylthiazole-4-carboxamido)-1H-pyrazol-5-yl)cyclopentyl isopropylcarbamate]: the IC50 in experiment [1] is 28.1 nM; in experiment [2], 8.52 nM; in experiment [3], 4630 nM; in experiment [4] (setting [5]) it was 318 nM.
For the molecule `CC(C)NC(=O)O[C@@H]1CC[C@H](c2cc(NC(=O)Cc3ncc(-c4cccc(O)c4C=O)s3)n[nH]2)C1` [Compound 66, (1R,3S)-3-(5-{2-[5-(2-formyl-3-hydroxyphenyl)-1,3-thiazol-2-yl]acetamido}-2H-pyrazol-3-yl)cyclopentyl N-isopropylcarbamate; trifluoroacetic acid], the IC50 in experiment [1] was found to be 390 nM; in experiment [2], 8.87 nM; in experiment [3] it was 779 nM; in experiment [4] (setting [5]), 1690 nM.
Regarding `CC(C)NC(=O)O[C@@H]1CC[C@H](c2cc(NC(=O)Cc3cnc(-c4cccc(O)c4C=O)s3)n[nH]2)C1` [Compound 67, (1R,3S)-3-(3-(2-(2-(2-formyl-3-hydroxyphenyl)thiazol-5-yl)acetamido)-1H-pyrazol-5-yl)cyclopentyl isopropylcarbamate; trifluoroacetic acid], the IC50 in experiment [1] came out at 35.3 nM; in experiment [2] it was 6.73 nM; in experiment [3], 202 nM; in experiment [4] (setting [5]), 475 nM.
Taken in the same sequence, the figures for `CC(C)NC(=O)O[C@@H]1CC[C@H](c2cc(NC(=O)Cc3ccc(-c4cccc(O)c4C=O)cc3)n[nH]2)C1` [Compound 68, (1R,3S)-3-[5-(2-{2′-formyl-3′-hydroxy-[1,1′-biphenyl]-4-yl}acetamido)-2H-pyrazol-3-yl]cyclopentyl N-isopropylcarbamate; trifluoroacetic acid] were 39.2 nM, 5.56 nM, 1150 nM and 662 nM.
Take `Cc1ncc(Oc2cccc(O)c2C=O)nc1C(=O)Nc1cc([C@H]2CC[C@@H](OC(=O)NC(C)C)C2)[nH]n1` [Compound 70, (1R,3S)-3-{5-[6-(2-formyl-3-hydroxyphenoxy)-3-methylpyrazine-2-amido]-2H-pyrazol-3-yl}cyclopentyl N-isopropylcarbamate]: the IC50 in experiment [1] was determined as 337 nM; in experiment [2] it was 10.1 nM; in experiment [3], 699 nM; in experiment [4] (setting [5]), 2680 nM.
For the molecule `COCc1cc(O)c(C=O)c(-c2cc(C(=O)Nc3cc([C@H]4CC[C@@H](OC(=O)NC(C)C)C4)[nH]n3)n(C)n2)c1` [Compound 71, (1R,3S)-3-(5-{5-[2-formyl-3-hydroxy-5-(methoxymethyl)phenyl]-2-methylpyrazole-3-amido}-2H-pyrazol-3-yl)cyclopentyl N-isopropylcarbamate; trifluoroacetic acid], the IC50 in experiment [1] is 10.3 nM; in experiment [2], 7.8 nM; in experiment [3], 4110 nM; in experiment [4] (setting [5]) it was 85.5 nM.
Take `COCc1cc(O)c(C=O)c(OCC(=O)Nc2cc([C@H]3CC[C@@H](OC(=O)NC(C)C)C3)[nH]n2)c1` [Compound 72, (1R,3S)-3-(3-(2-(2-formyl-3-hydroxy-5-(methoxymethyl)phenoxy)acetamido)-1H-pyrazol-5-yl)cyclopentyl isopropylcarbamate]: the IC50 in experiment [1] is 436 nM; in experiment [2], 8.38 nM; in experiment [3], over 10000 nM; in experiment [4] (setting [5]), 477 nM.
For `CC(C)NC(=O)O[C@@H]1CC[C@H](c2cc(NC(=O)COc3cc(Cl)cc(O)c3C=O)n[nH]2)C1` [Compound 73, (1R,3S)-3-(3-(2-(5-chloro-2-formyl-3-hydroxyphenoxy)acetamido)-1H-pyrazol-5-yl)cyclopentyl isopropylcarbamate], in that order: 61 nM, 26.7 nM, over 10000 nM and 299 nM.
Take `COc1ccc(-c2cc(C(=O)Nc3cc([C@H]4CC[C@@H](OC(=O)NC(C)C)C4)[nH]n3)n(C)n2)c(C=O)c1O` [Compound 74, (1R,3S)-3-{5-[5-(2-formyl-3-hydroxy-4-methoxyphenyl)-2-methylpyrazole-3-amido]-2H-pyrazol-3-yl}cyclopentyl N-isopropylcarbamate; trifluoroacetic acid]: the IC50 in experiment [1] was 29.5 nM; in experiment [2], 7.06 nM; in experiment [3], 3950 nM; in experiment [4] (setting [5]) it was 523 nM.
Turning to `CC(C)NC(=O)O[C@@H]1CC[C@H](c2cc(Nc3cc(C#Cc4cccc(O)c4C=O)ccn3)n[nH]2)C1` [Compound 75, (1R,3S)-3-[5-({4-[2-(2-formyl-3-hydroxyphenyl)ethynyl]pyridin-2-yl}amino)-2H-pyrazol-3-yl]cyclopentyl N-isopropylcarbamate; trifluoroacetic acid], the IC50 in experiment [1] turned out to be 372 nM; in experiment [2], 21.4 nM; in experiment [3] it was 224 nM; in experiment [4] (setting [5]), 4970 nM.
For `COc1cc(O)c(C=O)c(Oc2ccnc(Nc3cc([C@H]4CC[C@@H](OC(=O)NC(C)C)C4)[nH]n3)c2)c1` [Compound 76, (1R,3S)-3-(3-((4-(2-formyl-3-hydroxy-5-methoxyphenoxy) 476yridine-2-yl)amino)-1H-pyrazol-5-yl)cyclopentyl isopropylcarbamate], the IC50 in experiment [1] came to 66 nM; in experiment [2], 5.01 nM; in experiment [3] it was 6390 nM; in experiment [4] (setting [5]) it was 309 nM.
Regarding `COc1cc(O)c(C=O)c(OCc2cc(C(=O)Nc3cc([C@H]4CC[C@@H](OC(=O)NC(C)C)C4)[nH]n3)n(C)n2)c1` [Compound 77], the IC50 in experiment [1] turned out to be 8.93 nM; in experiment [2] it was 3.05 nM; in experiment [3], 44.3 nM; in experiment [4] (setting [5]) it was 46.5 nM.
Turning to `CC(C)NC(=O)O[C@@H]1CC[C@H](c2cc(NC(=O)N3CC=C(c4cccc(O)c4C=O)C3)n[nH]2)C1` [Compound 78, (1R,3S)-3-(3-(3-(2-formyl-3-hydroxyphenyl)-2,5-dihydro-1H-pyrrole-1-carboxamido)-1H-pyrazol-5-yl)cyclopentyl isopropylcarbamate], the IC50 in experiment [1] was 142 nM; in experiment [2] it was 16.7 nM; in experiment [3], over 10000 nM; in experiment [4] (setting [5]), 1190 nM.
For `COc1cc(O)c(C=O)c(-n2cc(CC(=O)Nc3cc([C@H]4CC[C@@H](OC(=O)NC(C)C)C4)[nH]n3)cn2)c1` [Compound 79, (1R,3S)-3-(5-{2-[1-(2-formyl-3-hydroxy-5-methoxyphenyl)pyrazol-4-yl]acetamido}-2H-pyrazol-3-yl) cyclopentyl N-isopropylcarbamate], the IC50 turned out to be 47 nM in experiment [1], 14.2 nM in experiment [2], 727 nM in experiment [3] and 505 nM in experiment [4].
Regarding `COc1ccc(OCC(=O)Nc2cc([C@H]3CC[C@@H](OC(=O)NC(C)C)C3)[nH]n2)c(C=O)c1O` [Compound 80, (1R,3S)-3-{5-[2-(2-formyl-3-hydroxy-4-methoxyphenoxy)acetamido]-2H-pyrazol-3-yl}cyclopentyl N-isopropylcarbamate], the IC50 in experiment [1] was 37.3 nM; in experiment [2] it was 25.4 nM; in experiment [3], over 10000 nM; in experiment [4] (setting [5]), 132 nM.
Consider `CCCNC(=O)O[C@@H]1CC[C@H](c2cc(NC(=O)COc3cccc(O)c3C=O)n[nH]2)C1` [Compound 81, (1R,3S)-3-{5-[2-(2-formyl-3-hydroxyphenoxy)acetamido]-2H-pyrazol-3-yl}cyclopentyl N-propylcarbamate; trifluoroacetic acid], for which the IC50 in experiment [1] was 18.8 nM; in experiment [2], 2.3 nM; in experiment [3], over 10000 nM; in experiment [4] (setting [5]), 119 nM.
